According to PubChem BioAssay (NCI):
Several values for one entry are separate records, joined by “and”; a condition that tells them apart may be missing. Identical values can stand only once.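 Cultured in 96-well plates, cells were exposed to test compound for 48 hours across five concentrations. Abbreviation: GI50, concentration required for 50% inhibition of growth. TGI: concentration producing complete growth inhibition.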

Assays:
Assay in all cases: inhibition of tumour cell growth, NCI panel, 48 h
UO-31 renal = test system: UO-31 renal
SF-268 CNS = test system: SF-268 CNS
DU-145 prostate = test system: DU-145 prostate
MCF7 breast = test system: MCF7 breast
MDA-MB-231 breast = test system: MDA-MB-231 breast
SF-539 CNS = test system: SF-539 CNS
OVCAR-3 ovarian = test system: OVCAR-3 ovarian
SN12C renal = test system: SN12C renal

SMILES	GI50 (UO-31 renal) [µM]	TGI (UO-31 renal)	GI50 (SF-268 CNS) [µM]	TGI (SF-268 CNS) [µM]	GI50 (DU-145 prostate) [µM]	TGI (DU-145 prostate)	GI50 (MCF7 breast) [µM]	TGI (MCF7 breast)	GI50 (MDA-MB-231 breast) [µM]	TGI (MDA-MB-231 breast)	GI50 (SF-539 CNS) [µM]	TGI (SF-539 CNS)	GI50 (OVCAR-3 ovarian) [µM]	TGI (OVCAR-3 ovarian)	GI50 (SN12C renal) [µM]	TGI (SN12C renal)
COc1cc(/C=C/C(=O)c2c(C)nc3ccccc3c2C)ccc1OCCCN1CCN(C(=O)c2ccco2)CC1	4	19.6 µM	10.9	25.8	9.78	21.4 µM	3.8	15.8 µM	7.22	29.9 µM	14.4	27.5 µM	9.46	21.3 µM	11	28.7 µM
CSc1ccc(C(=O)/C=C/c2ccccc2Cl)cc1	2.31	5.05 µM	22.4	53.3	13.9	29 µM	32.2	> 100 µM	13.3	31.2 µM	16.5	33.1 µM	8.98	21.9 µM	17.3	32.7 µM
CCCCCCCC(=O)[O][Hg][CH2]C1COC([CH2][Hg][O]C(=O)CCCCCCC)CO1 (stereo unspecified)	–	–	18.2	36.9	18.1	32.2 µM	4.32	18.3 µM	20.7	50.8 µM	17.5	37.4 µM	4.22	14.8 µM	15.7	30.5 µM
Cc1ccc(OCC2OC(n3cnc4c(Br)nc(Br)nc43)CC2Oc2ccc(C)cc2)cc1 (stereo unspecified)	11.9	22.3 µM and 28.4 µM	–	25.4	13.1	23.8 µM and 5.88 µM	2.52	8.4 µM and 30.3 µM	1.74	5.27 µM and 4.34 µM	0.466	10.2 µM and 15.6 µM	3.77	14.3 µM and 19.1 µM	9.93	22.9 µM and 14.2 µM
Nc1ncnc2c1ccn2[C@@H]1O[C@H]([C@H](O)c2ccc(Cl)c(F)c2)[C@@H](O)[C@H]1O	45.3	> 100 µM	> 100	> 100	> 100	> 100 µM	50.2	> 100 µM	> 100	> 100 µM	> 100	> 100 µM	> 100	> 100 µM	> 100	> 100 µM
O=[N+]([O-])c1cc2c([N+](=O)[O-])cccc2o1	–	3.98 µM	–	31.1	–	42 µM	–	13.8 µM	–	27.6 µM	–	6.67 µM	–	21.8 µM	–	27.9 µM
CN(C)c1ccc2nc(CC(O)(C(F)(F)F)C(F)(F)F)ccc2c1	–	> 10 µM	–	> 10	–	> 10 µM	–	> 10 µM	–	> 10 µM	–	> 10 µM	–	> 10 µM	–	> 10 µM
Cc1nccc2c3ccc(OCc4cn(-c5ccc(Cl)cc5)nn4)cc3n(CC(C)C)c12	1.72	14 µM	11.2	> 33.3	11.5	> 33.3 µM	1.45	9.29 µM	4.69	26.5 µM	2.82	10.9 µM	5.15	> 33.3 µM	3.69	> 33.3 µM
COc1ccc(N(C)c2nc(Cl)nc3cnn(C)c23)cc1	< 0.0383	> 95.5 µM	< 0.0112	> 100	0.0171	> 100 µM	< 0.01	> 100 µM	0.0262	> 100 µM	< 0.01	–	< 0.01	> 100 µM	< 0.0203	> 100 µM
CC1(C)N=C(N)N=C(N)N1c1cccc(Br)c1	6.69	> 100 µM	0.0541	> 100	0.895	> 100 µM	0.665	> 100 µM	> 100	> 100 µM	0.393	> 100 µM	6.56	> 100 µM	4.09	> 100 µM
Cn1c2ccccc2c2c(=O)n(CCCC(=O)OC(=NC3CCCCC3)NC3CCCCC3)c3c(-c4ccccc4)nnn3c21	> 100	> 100 µM	98.2	> 100	> 100	> 100 µM	64.1	> 100 µM	71.7	> 100 µM	38.4	> 100 µM	> 100	> 100 µM	> 100	> 100 µM
Fc1ccc(Nc2nc3ccccc3c3occc23)cc1	12.4	27.8 µM	7.54	24.1	14.4	27.5 µM	3.39	18.5 µM	1.07	19.9 µM	19.3	33.7 µM	1.48	12.1 µM	12.9	27.2 µM
C/C(=N/N=C(N)N)c1ccc(NC(=O)Nc2ccc(/C(C)=N/N=C(N)N)cc2)cc1	40.8	> 100 µM	17.2	> 71.2	11.2	40.1 µM	4.48	31.2 µM	20	71.2 µM	17.9	36.1 µM	18.6	> 61.6 µM	14.2	45.7 µM
N#CC1C(=O)NC(c2ccccc2[N+](=O)[O-])c2sc3c(F)cccc3c21 (stereo unspecified)	5.44	36.1 µM	15.8	56.9	8.16	46.1 µM	0.216	37 µM	8.53	54.8 µM	22	72.8 µM	0.318	12.7 µM	16.4	> 96.3 µM
C=CCc1c(O)c(C(=O)/C=C/c2ccccc2)c(OC)c2ccoc12	2.89	14.5 µM	2.8	10.7	4.92	18.1 µM	2.73	10.4 µM	3.11	11.3 µM	1.71	3.93 µM	2.46	7.06 µM	3.79	14.1 µM
O=c1c(Cl)cc2nc3ccccc3sc-2c1Cl	–	29.1 µM	–	28.5	–	25.8 µM	–	32.4 µM	–	21.3 µM	–	30.8 µM	–	5.93 µM	–	31.9 µM
COc1ccc2c(c1)C(=O)c1c-2c(Nc2cccc(C(C)=O)c2)nc2ccccc12	15.4	45.2 µM	36.5	> 100	11.7	32.2 µM	24	> 100 µM	3.21	12.7 µM	10.2	22.2 µM	19.7	42.8 µM	10.3	40.1 µM
COc1cnc2c(c1)C(=O)c1c-2n(CCCN2CCNCC2)c(=O)c2cc([N+](=O)[O-])ccc12	0.249	1.7 µM	–	–	0.278	1.23 µM	–	–	1.47	3.33 µM	0.354	1.47 µM	1.19	2.63 µM	–	–
O=C1NC(c2cccc(OCc3ccccc3)c2)Nc2ccccc21 (stereo unspecified)	–	55 µM	–	> 51	–	–	–	15.2 µM	–	4.69 µM	–	0.708 µM	–	0.558 µM	–	30.5 µM
COc1cccc(Nc2nccc(-c3cnn4ncccc34)n2)c1	0.0707	0.21 µM	0.0721	1.42	0.0884	> 25 µM	0.076	> 25 µM	0.0839	> 25 µM	0.0502	0.143 µM	–	–	0.0837	> 25 µM
C/C(=N/Nc1nc(C)cc(=O)[nH]1)C(=O)O	–	> 100 µM	–	> 100	–	> 100 µM	–	> 100 µM	–	> 100 µM	–	–	–	> 100 µM	–	> 100 µM
C[C@@H](Oc1cc(-n2cnc3ccc(OC[C@@H](O)CO)cc32)sc1C(N)=O)c1ccccc1Cl	8.39	> 25 µM	0.164	> 25	–	–	0.025	> 25 µM	0.416	> 25 µM	0.133	> 25 µM	0.0491	0.176 µM	1.08	> 25 µM
COc1ccc2c(c1OC(C)=O)C1=CC(=O)CCC13CCNC3C2 (stereo unspecified)	–	> 100 µM	–	> 100	–	> 100 µM	–	> 100 µM	–	> 100 µM	–	–	–	> 100 µM	–	> 100 µM
COCCn1cc(-c2csc(-c3c[nH]c4ccc(Br)cc34)n2)c2cccnc21	3.1	> 100 µM	–	–	–	–	1.79	> 100 µM	2.65	> 100 µM	7.34	> 100 µM	3.9	> 100 µM	7.72	> 100 µM
O=C(O)CCC(C(=O)O)N1C(=O)C2C3CCC(C3)C2C1=O (stereo unspecified)	–	–	–	> 100	–	> 100 µM	–	> 100 µM	–	> 100 µM	–	> 100 µM	–	> 100 µM	–	> 100 µM
COc1ccc(OC)c(/C=C/c2nc(SCc3ccccc3)n(-c3ccc(Cl)cc3)n2)c1	–	–	8.39	> 100	9.9	> 100 µM	4.78	> 100 µM	30.9	> 100 µM	4.25	> 100 µM	3.54	12 µM	8.1	> 100 µM
